Earlier results as cited in patent US9180195B2, “Controlled release gels” (Nano Fiber Matrices B.V., priority 2005, dated 2015).

Settings: for time to complete release from LMWG gel: from gels of N,N′-dibenzoyl-L-cystine (DBC)

SMILES: Nc1cccc2cccnc12 [AQ, 8-aminoquinoline]
- time to complete release from LMWG gel: ~1 h

SMILES: Oc1ccc2ccccc2n1 [HQ, 2-hydroxyquinoline]
- initial release rate relative to AQ (from gels of DBC): approximately seven
- time to complete release from LMWG gel: approximately 15 min
